The values that follow come from PMC6269562, “Design, Synthesis and Biological Evaluation of New Imidazo[2,1-b]Thiazole Derivatives as Selective COX-2 Inhibitors” (Iranian Journal of Pharmaceutical Research : IJPR, 2018).

For one series, the system named is COX-1. Conditions: read-out: IC50 Whole cell COX-1; cited from earlier work.
The next series addresses T1, ovine COX-1 (Ovis aries, UniProt P05979).
T1 construct: purchased Cayman chemical, MI, USA
T1 sequence (P05979 25-600): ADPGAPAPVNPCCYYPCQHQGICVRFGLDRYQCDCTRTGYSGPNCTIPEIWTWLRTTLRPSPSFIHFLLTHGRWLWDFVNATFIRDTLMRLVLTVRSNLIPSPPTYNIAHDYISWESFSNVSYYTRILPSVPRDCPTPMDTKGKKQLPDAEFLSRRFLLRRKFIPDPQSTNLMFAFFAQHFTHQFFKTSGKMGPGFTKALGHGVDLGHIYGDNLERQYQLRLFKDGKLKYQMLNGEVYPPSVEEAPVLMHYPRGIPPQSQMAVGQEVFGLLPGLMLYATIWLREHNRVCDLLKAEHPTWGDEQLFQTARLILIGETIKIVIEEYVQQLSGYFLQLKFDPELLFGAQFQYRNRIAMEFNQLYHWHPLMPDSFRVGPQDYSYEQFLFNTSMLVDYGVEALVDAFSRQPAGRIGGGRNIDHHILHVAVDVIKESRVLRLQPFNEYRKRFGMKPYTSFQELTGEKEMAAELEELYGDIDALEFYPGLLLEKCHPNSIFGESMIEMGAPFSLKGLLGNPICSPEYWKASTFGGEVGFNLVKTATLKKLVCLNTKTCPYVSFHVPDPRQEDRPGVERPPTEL
Briefly: biochemical. Particulars: ovine COX-1/COX-2 assay kit, means of two determinations. The text has this: (§1) In-vitro cyclooxygenase (COX) inhibition assay
(§2) Enzyme chemiluminescent kit (Cayman chemical, MI, USA) was used to evaluate inhibition activities of synthesized compounds based on our previous reported procedure ([34]). The Cayman chemical chemiluminescent COX (ovine) inhibitor screening assay employs the heme-catalyzed hydroperoxidase activity of ovine cyclooxygenases to produce luminescence in the presence of a cyclic naphthalene hydrazide and the substrate arachidonic acid.

Another series concerns the target T2, ovine COX-2 (Ovis aries, UniProt P79208).
T2 construct: purchased Cayman chemical, MI, USA
T2 sequence (P79208 17-603): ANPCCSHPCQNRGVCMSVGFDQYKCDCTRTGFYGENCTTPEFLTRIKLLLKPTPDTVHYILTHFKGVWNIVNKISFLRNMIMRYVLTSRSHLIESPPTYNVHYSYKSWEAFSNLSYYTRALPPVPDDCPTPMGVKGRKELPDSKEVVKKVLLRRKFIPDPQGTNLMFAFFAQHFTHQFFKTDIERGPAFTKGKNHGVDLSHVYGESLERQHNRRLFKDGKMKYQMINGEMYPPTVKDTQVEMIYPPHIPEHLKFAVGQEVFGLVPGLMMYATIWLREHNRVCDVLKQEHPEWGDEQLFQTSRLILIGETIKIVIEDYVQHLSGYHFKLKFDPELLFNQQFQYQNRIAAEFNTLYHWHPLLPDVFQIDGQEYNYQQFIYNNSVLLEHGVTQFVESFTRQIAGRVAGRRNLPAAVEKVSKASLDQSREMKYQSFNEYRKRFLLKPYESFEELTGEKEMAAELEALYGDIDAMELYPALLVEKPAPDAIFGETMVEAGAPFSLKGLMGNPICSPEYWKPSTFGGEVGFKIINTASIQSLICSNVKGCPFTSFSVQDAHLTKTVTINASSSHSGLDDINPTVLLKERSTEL
Briefly: biochemical. Conditions: for pIC50: ovine COX-1/COX-2 assay kit, means of two determinations; for Selectivity index (SI): COX-1 IC50/COX-2 IC50.
Source text: as §1, §2

In series [1] the test system is COX-2. Conditions: read-out: COX-2 IC50; cited from earlier work.
Series [2] has as its system COX-2. Particulars: cited from earlier work.

SMILES strings stand for the structures. pIC50: −log10 of the molar value. Read-outs that look alike come from different tables or passages of the source.

In general, pIC50 refers to the negative decadic logarithm of the IC50, by convention in mol/L. `Cc1cnc2c(-c3ccc(F)cc3)c(-c3ccc(S(C)(=O)=O)cc3)nn2c1C` [3-(4-fluorophenyl)-6,7-dimethyl-2-(4-(methylsulfonyl)phenyl)pyrazolo[1,5-a]pyrimidine]: the pIC50 in the series on COX-1 is below 5.00.

The melting point is the temperature, or range, at which the solid turns liquid. `CS(=O)(=O)c1ccc(-c2nc3sccn3c2CN(CCO)CCO)cc1` [Compound 6g, 2,2′-(((6-(4-(Methylsulfonyl)phenyl)imidazo[2,1-b]thiazol-5-yl)methyl)azanediyl)bis(ethan-1-ol)]: the melting point lay in the range of 168.8 to 170 °C. The compound further showed a pIC50 against ovine COX-1 below 4.00. The negative logarithm of the IC50 (pIC50) at ovine COX-2 is 6.96.

In the case of `COc1ccc2[nH]c(-c3ccc(S(C)(=O)=O)cc3)cc2c1` [5-methoxy-2-(4-(methylsulfonyl)phenyl)-1H-indole], the pIC50 in the series on COX-2 [1] is 7.10.

As to `CS(=O)(=O)c1ccc(-c2nc3sccn3c2CN2CCOCC2)cc1` [Compound 6f, 4-((6-(4-(Methylsulfonyl)phenyl)imidazo[2,1-b]thiazol-5-yl)methyl)morpholine], the melting point lay in the range of 203 to 206 °C. The compound also had a pIC50 against ovine COX-1 of 4.26. Besides, at ovine COX-2, the “Selectivity index (SI)” value is reported as 551.0 and the pIC50 is 7.00.

In the case of `CN(C)Cc1c(-c2ccc(S(C)(=O)=O)cc2)nc2sccn12` [Compound 6a, N,N-Dimethyl-1-(6-(4-(methylsulfonyl)phenyl)imidazo[2,1-b]thiazol-5-yl)methanamine], the melting point was in the range of 123 to 124 °C. In addition, the pIC50 at ovine COX-1 is below 4.00. On ovine COX-2, the pIC50 is 7.10.

For `CS(=O)(=O)c1ccc(-c2nc3sccn3c2CN2CCCCC2)cc1` [Compound 6e, 6-(4-(Methylsulfonyl)phenyl)-5-(piperidin-1-ylmethyl)imidazo[2,1-b]thiazole], the melting point lay in the range of 142.6 to 144 °C. The compound further had a pIC50 against ovine COX-1 of 4.30. Moreover, on ovine COX-2, the “Selectivity index (SI)” value came out at 313.1 and the pIC50 was 6.80.

In turn, `CS(=O)(=O)c1ccc(-c2nc3sccn3c2CN2CCCC2)cc1` [Compound 6d, 6-(4-(Methylsulfonyl)phenyl)-5-(pyrrolidin-1-ylmethyl)imidazo[2,1-b]thiazole] gave a melting point of 144 to 146 °C. On ovine COX-1, this compound gave a pIC50 of 4.92. Besides, on ovine COX-2, the “Selectivity index (SI)” value is 134.4 and the pIC50 is 7.05.

As to `CS(=O)(=O)c1ccc(-c2nc3ccccn3c2CN2CCOCC2)cc1` [2-(4-(methylsulfonyl)phenyl)-3-(morpholinomethyl)H-imidazo[1,2-a]pyridine], in the series on COX-2 [2] (COX-2 selectivity index), the SI was 217.1. Moreover, in the series on COX-2 [2] (read-out: IC50 (COX-2 inhibition)), the pIC50 was 7.15.

Take `CCCN(CCC)Cc1c(-c2ccc(S(C)(=O)=O)cc2)nc2sccn12` [Compound 6c, N-((6-(4-(Methylsulfonyl)phenyl)imidazo[2,1-b]thiazol-5-yl)methyl)-N-propylpropan-1-amine]: the melting point was 165 to 167 °C.

In the case of `CCN(CC)Cc1c(-c2ccc(S(C)(=O)=O)cc2)nc2sccn12` [Compound 6b, N-Ethyl-N-((6-(4-(methylsulfonyl)phenyl)imidazo[2,1-b]thiazol-5-yl)methyl)ethanamine], the melting point was 132 to 135 °C. In addition, the pIC50 on ovine COX-1 was 4.31. In addition, on ovine COX-2, the “Selectivity index (SI)” value is listed as 404.1 and the pIC50 is 6.92.
